In paper PMC6766947, “Multi-Armed 1,2,3-Selenadiazole and 1,2,3-Thiadiazole Benzene Derivatives as Novel Glyoxalase-I Inhibitors” (Molecules, 2019):

Target: T1, human recombinant Glo-I (rhGlo-I) (Homo sapiens, UniProt Q04760)
T1 construct: purchased R&D Systems
T1 sequence (Q04760 2-184 limits assumed): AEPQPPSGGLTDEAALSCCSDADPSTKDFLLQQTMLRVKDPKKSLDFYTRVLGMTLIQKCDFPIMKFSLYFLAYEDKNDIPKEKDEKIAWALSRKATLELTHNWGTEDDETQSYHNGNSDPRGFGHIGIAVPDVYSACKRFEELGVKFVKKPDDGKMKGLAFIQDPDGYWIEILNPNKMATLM
Assay: In vitro Glo-I enzyme inhibition assay (UV-Vis, 240 nm)
Assay type: biochemical
Conditions: for IC50: rhGlo-I, triplicates, 240 nm, 200 s, 25 °C, pH 7.0–7.2
Method: A total of twelve synthesized multi-arm benzene derivatives of 1,2,3-selenadiazole and 1,2,3-thiadiazole by M. Al-Smadi et al. were selected for the present study. The in vitro inhibitory activity of the compounds against the human Glo-I enzyme was measured using double-beam UV-Vis spectrophotometer (Biotech Engineering Management Co. Ltd., UK).
The Glo-I inhibitory activity was determined as reported previously. Briefly, human recombinant Glo-I (rhGlo-I), provided by R&D Systems® Corporation, was reconstituted by dissolving 0.5 mg/mL of it in sterile, deionized water before storing at –70 °C. The tested compounds were dissolved in DMSO to 10 mM stock solution. The assay buffer was prepared by mixing 0.1 M sodium phosphate dibasic solution and 0.1 M sodium phosphate monobasic solution with a pH of 7.0–7.2. The substrate mixture was prepared by mixing a suitable volume of 0.1 M sodium phosphate assay buffer with 100 mM methylglyoxal solution and 100 mM reduced glutathione. Finally, the tested compounds were mixed with the assay buffer, substrate solution mixture, and the Glo-I enzyme in a cuvette at an appropriate tested concentration. Each compound was tested in triplicates at λmax = 240 nm for 200 s at 25 °C.

| IC50 [nM] | activity relative to selenium containing counterpart (fold difference in Glo-I inhibitory activity, sulfur vs selenium analogue) | Compound |
| --- | --- | --- |
| 2670 ± 310 | – | c1cc(-c2csnn2)ccc1OCc1c(COc2ccc(-c3csnn3)cc2)c(COc2ccc(-c3csnn3)cc2)c(COc2ccc(-c3csnn3)cc2)c(COc2ccc(-c3csnn3)cc2)c1COc1ccc(-c2csnn2)cc1 [Compound 12] |
| 2400 ± 130 | eight times more active | c1cc(-c2csnn2)ccc1OCc1cc(COc2ccc(-c3csnn3)cc2)c(COc2ccc(-c3csnn3)cc2)cc1COc1ccc(-c2csnn2)cc1 [Compound 10] |
| 3000 ± 150 | – | c1c(COc2ccc(-c3csnn3)cc2)cc(COc2ccc(-c3csnn3)cc2)cc1COc1ccc(-c2csnn2)cc1 [Compound 8] |

| Compound | IC50 [nM] | activity relative to selenium containing counterpart (fold difference in Glo-I inhibitory activity, sulfur vs selenium analogue) |
| --- | --- | --- |
| c1cc(-c2c[se]nn2)ccc1OCc1c(COc2ccc(-c3c[se]nn3)cc2)c(COc2ccc(-c3c[se]nn3)cc2)c(COc2ccc(-c3c[se]nn3)cc2)c(COc2ccc(-c3c[se]nn3)cc2)c1COc1ccc(-c2c[se]nn2)cc1 [Compound 11] | 8300 ± 560 | – |
